Data published in patent US10717758B2, “D-amino acid compounds for liver disease” (priority 2012, dated 2020).
One block for each compound: values may come before it.

Experiments:
Zluc cells = assay: Cytotoxicity evaluation in Zluc cells (CellTiter-Blue); assay type: cell-based, human; conditions: read-out: HCV Replicon CC50
Procedure: For cytotoxicity evaluation, Zluc cells were treated with compound as described herein, and cell viability was monitored using the CellTiter-Blue Cell Viability Assay (Promega) by adding 20 μL of the assay solution to each well. The plates were then incubated at 37° C./5% CO2 for at least 3 hours.

Huh-7 cells = assay: Release of active metabolite in Huh-7 cells; assay type: in vitro ADME, human
Procedure: Huh-7 cells were plated in 1 mL culture medium (DMEM, containing glucose, L-glutamine and sodium pyruvate, 10% FBS, 100 IU/mL penicillin, 100 μg/mL streptomycin, 2 mM GlutaMAX, 1% MEM non-essential amino acids) at the concentration 0.8, 0.4 and 0.2 million cells per well on 6 well plates for 24, 48 and 72 hr treatment, respectively. Plated cells were incubated overnight at 37° C. in an incubator.
The following morning test compound was diluted to 20 μM from a stock solution in DMSO in fresh culture medium pre-warmed to 37° C. and 1 mL of the solution/well was added to cells. A final medium volume per well was 2.0 mL, test compound concentration in well was 10 μM and final DMSO concentration was 0.1%.
After 24, 48 or 72 hr, the medium was carefully removed and cell monolayers were washed twice with 2 mL ice-cold PBS per well. Following the last wash, all PBS was carefully removed and 1.0 mL of extraction solution (ice-cold 70% methanol) added. The plate was tightly covered with Parafilm, plastic plate cover and Parafilm again and an intracellular content was extracted at −20° C. for 24 hr.
After 24 hr the extracts were transferred into polypropylene microfuge tubes and dry on a refrigerated centrivap concentrator. Dry residues were reconstituted in 250 μL of HPLC-grade water and centrifuged at 16,000×g for 10 min. Aliquots (100 μL each) of the supernatants were transferred into a 96 well plate and internal standard (4 ng/mL final concentration) was added as the internal standard (IS) for LC-MS/MS analysis.

cathepsin A (CatA) = biological target: T1, cathepsin A (CatA) (Homo sapiens, UniProt P10619); assay: Hydrolysis of prodrugs by Cathepsin A; assay type: in vitro ADME
T1 sequence (P10619 29-326 limits assumed): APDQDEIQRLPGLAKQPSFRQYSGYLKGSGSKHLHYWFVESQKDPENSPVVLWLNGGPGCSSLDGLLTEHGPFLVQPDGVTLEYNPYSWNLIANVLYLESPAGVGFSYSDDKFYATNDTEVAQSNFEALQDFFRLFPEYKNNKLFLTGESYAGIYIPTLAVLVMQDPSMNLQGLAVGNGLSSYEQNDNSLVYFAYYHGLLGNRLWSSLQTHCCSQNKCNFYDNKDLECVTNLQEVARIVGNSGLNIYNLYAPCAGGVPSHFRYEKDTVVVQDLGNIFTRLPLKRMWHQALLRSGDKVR
T1 sequence (P10619 327-480 limits assumed): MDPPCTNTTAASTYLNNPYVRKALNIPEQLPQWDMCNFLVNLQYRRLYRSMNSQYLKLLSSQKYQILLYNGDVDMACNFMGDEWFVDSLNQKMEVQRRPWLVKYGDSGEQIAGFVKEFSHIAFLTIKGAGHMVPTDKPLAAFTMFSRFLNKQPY
Procedure: CatA, cathepsin L (CatL) and CES1 were purchased from R & D Systems (Minneapolis, Minn.). Prior to the enzymatic hydrolysis reactions, CatA was activated according to the manufacturer's instruction. Briefly, CatA (0.05 μg/μL) was incubated with CatL (0.005 μg/μL) for 30 min at 37° C. in 25 mM MES pH 6.0 containing 5 mM DTT. The reaction was stopped by addition of the CatL specific inhibitor E64 (10 μM).
The CatA assay was performed at 37° C. The reaction mixture contained 25 mM MES buffer pH 6.0, 100 mM NaCl, 4 mM DTT and 100 μM of the compound. The reaction was started by addition of the activated CatA enzyme to a final concentration of 0.005 μg/μL. […] Reactions were stopped by mixing the sample with an equal volume of ice-cold methanol, and were loaded on a HPLC for analysis.

[1] = biological target: T2, carboxylesterase 1 (CES1) (Homo sapiens, UniProt P23141); assay: Hydrolysis of prodrugs by Carboxylesterase 1; assay type: in vitro ADME; conditions: for CES1 hydrolysis: 100 μM compound, 37° C., pH 7.5
T2 construct: purchased R & D Systems (Minneapolis, Minn.)
T2 sequence (P23141 18-567): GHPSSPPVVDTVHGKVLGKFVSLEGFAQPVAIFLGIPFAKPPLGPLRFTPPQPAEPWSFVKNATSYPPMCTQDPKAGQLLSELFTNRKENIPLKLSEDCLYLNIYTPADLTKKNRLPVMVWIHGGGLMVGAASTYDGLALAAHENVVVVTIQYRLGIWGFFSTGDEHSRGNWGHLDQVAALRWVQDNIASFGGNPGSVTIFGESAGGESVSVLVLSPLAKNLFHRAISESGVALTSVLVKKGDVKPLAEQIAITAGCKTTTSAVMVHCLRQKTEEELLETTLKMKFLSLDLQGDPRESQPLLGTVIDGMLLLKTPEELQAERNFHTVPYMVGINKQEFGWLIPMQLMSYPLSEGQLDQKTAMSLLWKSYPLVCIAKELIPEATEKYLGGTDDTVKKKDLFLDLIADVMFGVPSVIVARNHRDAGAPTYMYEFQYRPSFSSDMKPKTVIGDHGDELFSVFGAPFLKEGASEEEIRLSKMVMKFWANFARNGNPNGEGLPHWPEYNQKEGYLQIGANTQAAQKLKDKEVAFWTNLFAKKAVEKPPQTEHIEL
Procedure: CES1 assay was performed at 37° C. in the reaction mixture containing 50 mM Tris/HCl buffer pH 7.5 and 100 μM of the compound. Reaction was started by addition of the CES1 to the final concentration 0.01 μg/mL. 100 μL aliquots were taken after 0.5 min, 3 hrs and 21 hrs of the incubation and the reaction was stopped by mixing with 100 μl of the ice-cold methanol prior to HPLC analysis.
Samples were analyzed by HPLC using 5 μC-18, 4.6×250 mm Phenomenex® Columbus column (Phenomenex USA, Calif.). The mobile phase consisted of buffer A (25 mM potassium phosphate with 5 mM tetrabutylammonium dihydrogen phosphate pH 6.3) and buffer B (100% methanol).

HCV genotype 1b replicon = assay: HCV replicon assay; assay type: cell-based; conditions: Zluc (Huh-7-derived) cells, luciferase reporter, 72 hours; read-out: HCV Replicon EC50
Procedure: Huh-7-derived cell line (Zluc) that harbors an HCV genotype 1b replicon and a luciferase reporter gene was grown in Dulbecco's Modified Eagle Medium (DMEM) supplemented with 10% fetal bovine serum, 2 mM GlutaMAX, 1% MEM nonessential amino acids, 100 IU/mL penicillin, 100 μg/mL streptomycin, and 0.5 mg/mL Geneticin® (G418). For dose response testing the cells were seeded in 96-well plates at 7.5×10^3 cells per well in a volume of 50 μL, and incubated at 37° C./5% CO2. Drug solutions were made up freshly in Huh-7 media as 2× stocks. Ten additional 5-fold dilutions were prepared from these stocks in DMEM without G418. At least three hours after Zluc cells were seeded, drug treatment was initiated by adding 50 μL of drug dilutions to the plates in duplicate. Final concentrations of drug ranged from 100 μM to […]. Cells were then incubated at 37° C./5% CO2. Alternatively, compounds were tested at two concentrations (1 μM and 10 μM). […] For this, media was removed from the plates via gentle tapping. Fifty microliters of ONE-glo luciferase assay reagent was added to each well. The plates were shaken gently for 3 min at room temperature and luminescence was measured on a Victor^3 V 1420 multilabel counter (Perkin Elmer) with a 1 second read time using a 700 nm cut-off filter. The EC50 values were calculated from dose response curves from the resulting best-fit equations determined by Microsoft Excel and XLfit 4.1 software. When screening at two fixed concentrations, the results were expressed as % inhibition at 1 μM and 10 μM.

[2] = Plasma nucleoside and liver triphosphate PK after single oral dose (Example 4); assay type: in vivo, CD-1 mice; conditions: at 1 μmol/kg, single oral dose 10 mg/kg in PEG 200
Procedure: Plasma samples were analyzed for nucleoside by LC-MS/MS. The internal standard (IS) was either 2′-MeG-D3 or tiapride. For protein precipitation and extraction, each plasma sample (50 μL) was treated with 500 μL of 0.2% formic acid in acetonitrile and 20 μL of the internal standard working solution. After vortexing and centrifugation, 500 μL of the sample extracts were transferred to a new plate, dried under N2 at ˜28° C. and reconstituted with 75 μL of 0.2% FA in water. The extracts were chromatographed on an Aquasil C18 column using a gradient system of 0.2% formic acid in water and acetonitrile. The analytes were detected and quantified by tandem mass spectrometry in positive ion mode on an MDS Sciex API5000 equipped with a Turbo Ionspray® interface. The calibration range was 0.500 (LLOQ) to 200 ng/mL in mouse plasma.
(§1) Internal standard solution was added to the homogenate followed by neutralization with 20% ammonium hydroxide solution and addition of 500 μL 1% formic acid. The tissue samples were extracted by weak anion exchange solid phase extraction (SPE). Post extraction, the eluates were evaporated under nitrogen, followed by reconstitution before injection onto the LC-MS/MS system.

[3] = Liver triphosphate and plasma prodrug and nucleoside PK after single oral dose (Example 5); assay type: in vivo, Cynomolgus monkeys; conditions: oral 10 mg/kg
Procedure: For each compound, a single oral dose at 10 mg/kg in PEG 200 (dose volume 3 mL/kg) was administered to cynomolgus monkeys. Untreated animals were used for the collection of control liver. Plasma samples were collected at 0.5, 1, 2, 4, 6, 8, 12 and 24 hours for compound 37, diastereomer 2.
Plasma samples were analyzed for the prodrug and nucleoside by LC-MS/MS. For protein precipitation and extraction, each plasma sample (50 μL) was treated with 500 μL of 0.2% formic acid in acetonitrile and 20 μL of an appropriate internal standard working solution. After vortexing and centrifugation, 500 μL of the sample extracts were transferred to a new plate, dried under N2 at ˜28° C. and reconstituted with 75 μL of 0.2% FA in water. The extracts were chromatographed on an Aquasil C18 column using a gradient system of 0.2% formic acid in water and acetonitrile. The analytes were detected and quantified by tandem mass spectrometry in positive ion mode on an MDS Sciex API4000 equipped with a Turbo Ionspray® interface.
as §1, with “Liver samples were analyzed for the relevant nucleoside triphosphate by LC-MS/MS. […] Appropriate internal” for “Internal”

SMILES: CCCCOC(=O)[C@@H](C)NP(=O)(OC[C@H]1O[C@@H](n2ccc(=O)[nH]c2=O)[C@](C)(Cl)[C@@H]1O)Oc1ccccc1 (single isomer, unassigned) [202i Diastereomer 1]
CC50 (Zluc cells): > 50 µM

SMILES: C[C@@H](NP(=O)(OC[C@H]1O[C@@H](n2ccc(=O)[nH]c2=O)[C@](C)(Cl)[C@@H]1O)Oc1ccccc1)C(=O)OCc1ccccc1 (single isomer, unassigned) [205i Diastereomer 1]
CC50 (Zluc cells): > 50 µM

SMILES: CC(C)OC(=O)[C@H](C)N[P@](=O)(OC[C@H]1O[C@@H](n2ccc(=O)[nH]c2=O)[C@](C)(F)[C@@H]1O)Oc1ccccc1 (single isomer, unassigned) [GS-7977, reference compound]
Huh-7 AUC0-72 (Huh-7 cells; Table 7): 63555 pmol*hr/10^6cells
Hydrolysis by CatA (cathepsin A (CatA)): hydrolyzed
CatA hydrolysis (cathepsin A (CatA); @ 18 h, 100 μM compound, 37° C., pH 6.0): 100% @
CatA cleavage efficiency relative to the RP diastereoisomer (cathepsin A (CatA); GS-7977 (SP) versus RP diastereoisomer): 10 times
Hydrolysis by CES1 [1]: hydrolyzed
CES1 hydrolysis ([1]; 3 h): 12%/3 h;
CES1 hydrolysis ([1]; 21 h): 15%/21 h

SMILES: CC(C)OC(=O)[C@H](C)NP(=O)(OC[C@H]1O[C@@H](n2ccc(=O)[nH]c2=O)[C@](C)(Cl)[C@@H]1O)Oc1ccccc1 (single isomer, unassigned; diastereomer 1) [40ii Diastereomer 1]
EC50 (HCV genotype 1b replicon): < 0.25 µM
CC50 (Zluc cells): > 50 µM
Huh-7 TP AUC (Huh-7 cells; 10 μM test compound): 4380 pmol.hr/mill cells
Huh-7 TP Cmax (Huh-7 cells; 10 μM test compound): 123 pmol/mill cells
Huh-7 TP (24 hr) (Huh-7 cells; 10 μM test compound, 24 hr): 25
Huh-7 TP (48 hr) (Huh-7 cells; 10 μM test compound, 48 hr): 96
Huh-7 TP (72 hr) (Huh-7 cells; 10 μM test compound, 72 hr): 123
Ms Plasma nucleoside AUC [2]: 0.00349 M·s
Cmax ([2]; read-out: Ms Plasma nucleoside Cmax): 86 nM

Nucleoside triphosphate in Liver C6 ([3]; 6 hours post dose, normalized to 1 μmol/kg dose): 1500 pmol/g
Nucleoside triphosphate in Liver Tmax [3]: 12 h
Plasma nucleoside Tmax [3]: 4 h
Plasma prodrug Tmax [3]: 4 h
Nucleoside triphosphate in Liver AUC0-24 ([3]; normalized to 1 μmol/kg dose): 29000 pmol·h/g
Nucleoside triphosphate in Liver Cmax ([3]; normalized to 1 μmol/kg dose): 1700 pmol/g
Plasma nucleoside AUC0-24 ([3]; normalized to 1 μmol/kg dose): 0.65 µM·h
Plasma prodrug AUC0-24 ([3]; normalized to 1 μmol/kg dose): 4 µM·h
Cmax ([3]; normalized to 1 μmol/kg dose, read-out: Plasma nucleoside Cmax): 51 nM
Cmax ([3]; normalized to 1 μmol/kg dose, read-out: Plasma prodrug Cmax): 840 nM
SMILES: CC(C)OP1(=O)OC[C@H]2O[C@@H](n3ccc(=O)[nH]c3=O)[C@](C)(Cl)[C@@H]2O1 (single isomer, unassigned; diastereomer 2) [37 Diastereomer 2]

SMILES: CCCCOC(=O)[C@@H](C)NP(=O)(OC[C@H]1O[C@@H](n2ccc(=O)[nH]c2=O)[C@](C)(Cl)[C@@H]1O)Oc1ccccc1 (single isomer, unassigned; diastereomer 2) [202i Diastereomer 2]
EC50 (HCV genotype 1b replicon): 0.25 to 1 µM
CC50 (Zluc cells): > 50 µM
Ms Plasma nucleoside AUC [2]: 0.00612 M·s

SMILES: C[C@@H](NP(=O)(OC[C@H]1O[C@@H](n2ccc(=O)[nH]c2=O)[C@](C)(Cl)[C@@H]1O)Oc1ccccc1)C(=O)OCc1ccccc1 (single isomer, unassigned; diastereomer 2) [205i Diastereomer 2]
EC50 (HCV genotype 1b replicon): 0.25 to 1 µM
CC50 (Zluc cells): > 50 µM
Ms Plasma nucleoside AUC [2]: 0.00612 M·s
